From patent US20080051413A1, “Nitrophenylpiperazine derivative of xanthine which relaxes tracheal airway and increases respiratory performance” (KAOHSIUNG MEDICAL UNIVERSITY, priority 2006, published 2008)
Several values for one entry are separate records, joined by “and”; a condition that tells them apart may be missing. Equal entries are not always repeated.

Assays:
[1] = target: T1, PDE5 purified from human platelets (Homo sapiens, UniProt O76074); experiment: Phosphodiesterase activity, PDE5; assay type: biochemical; conditions: 10 _M compound, n = 3
T1 construct: PDE3 and PDE5 purified from human platelets; from tissue; host or cells: human platelets
Description: The reaction was terminated by boiling for 2 min, and the resulting GMP was converted to adenosine by the addition of 10 mg/ml snake venom nucleotidase, which was followed by a further incubation at 37_ for 10 min. Unhydrolyzed cGMP was bound to AG1-X2 resin, and the remaining [^3H]guanosine in the aqueous phase was quantitated by scintillation counting.

[2] = tested on: carbachol (1 _M)-precontracted guinea pig trachea; experiment: Isolated tracheal preparation, measurement of tension
Description: Isolated Tracheal preparation and Measurement of Tension: Guinea pigs (350-450 g) were anesthetized with pentobarbital (70 mg/kg) i.p. and killed by a sharp blow on the neck, followed by cervical dislocation. The trachea was excised, cleaned of adhering fat and connective tissue, cut transversely into four to five rings, and then opened by cutting longitudinally through the cartilage rings diametrically opposite the tracheal smooth muscle (Hwang T L, Wu C C, and Teng C M (1999) YC-1 potentiates nitric oxide-induced relaxation in guinea-pig trachea. Br J Pharmacol 128:577-584). Then trachea rings were suspended in a 10-ml organ bath containing Krebs' solution (118 mM NaCl, 25 mM NaHCO3, 4.7 mM KCl, 1.2 mM KH2PO4, 1.2 mM MgSO4, 11 mM glucose, and 2.5 mM CaCl2, pH 7.3-7.4) maintained at 37_and aerated with 95% O2 and 5% CO2. Each tracheal tissue sample was subjected to 2 g of initial basal tension. All experiments were carried out in the presence of indomethacin (3 _M) and propranolol (1 _M) to prevent the formation of prostanoids and to inhibit _-adrenergic responses, respectively. Isometric tension was recorded with a force displacement transducer (model FT03; Grass Instruments, Quincy, M A). Before the start of measurements, all preparations were allowed to equilibrate with frequent washing for 1 h. They were first contracted with carbachol (1 _M) to determine the contractility of preparations. This was also done at the end of each experiment. The preparations were then washed and allowed to equilibrate with Krebs' solution for 50 min before being contracted a second time with carbachol (1 _M). When stable constriction to carbachol was reached, concentration responses of KMUP-3 (10, 30, and 100 _M) were obtained. Data were expressed as percentages of the maximum contractile response to carbachol (1 _M).
In experiments to examine the role of epithelium in tracheal relaxation, the epithelial cells were removed mechanically by rubbing the internal surface of trachea with a fine silver wire, and the removal of the epithelial layer was confirmed by histological examination as previously described (Wu et al., 2004).
To examine the possible mechanism of tracheal relaxant effects of KMUP-3, the tracheal strips were pretreated with a K^+ channel blocker, tetraethylammonium (TEA; 10 mM); a KATP channel blocker, glibenclamide (1-M); voltage-dependent K^+ channel blocker, 4-aminopyridine (4-AP, 100 _M); Ca^2+-dependent K^+ channel blockers, apamin (1 _M) and charybdotoxin (ChTX; 0.1 _M); a sGC inhibitor, 1H-[1,2,4]oxadiazolo[4,3-a]quinoxalin-1-one (ODQ; 1 _M); an NOS inhibitor, N—nitro-L-arginine methyl ester (L-NAME; 100 _M); and an adenylate cyclase (AC) inhibitor, SQ 22536 (100 _M) for 30 min prior to the addition of KMUP-3 (10, 30, and 100 _M). In the other experiments, TSMs were precontracted with 60 mM KCl to examine the relaxation achieved by KMUP-3. The KCl solution was prepared by substituting NaCl with KCl (60 mM) in an equimolar amount.

[3] = tested on: guinea pig tracheal smooth muscle cells; experiment: Measurement of cAMP in TSMCs; assay type: cell-based
Description: Cell Culture of Tracheal Smooth Muscle: Guinea pigs (350-450 g) were injected i.p. with a lethal dose of pentobarbital. The tracheas were excised and cut longitudinally through the cartilage. Using a dissecting microscope, TSM strips were dissected from the surrounding parentchyma. The epithelium was removed from the luminal surface, and bands of TSM were gently separated from the underlying connective tissue. Then TSM strips were chopped into small sections (1 mm^3) and incubated in Hanks' balanced salt solution (138 mM NaCl, 4 mM NaHCO3, 5 mM KCl, 0.3 mM KH2PO4, 0.3 mM Na2HPO4, and 1.0 mM glucose) with 0.05% elastase type IV and 0.2% collagenase type IV (Invitrogen, Carlsbad, Calif.) for 30 min at 37_ with gentle shaking. The solution of dissociated smooth muscle cells was centrifuged (6 min at 500 g), and the pellet was resuspended in 1:1 Dulbecco's modified Eagle's medium/Ham's F-12 medium supplemented with 10% fetal bovine serum, 0.244% NaHCO3, and 1% penicillin/streptomycin. Cells were cultured in 25-cm^2 flasks at 37_ in humidified air containing 5% CO2. Confluent cells were detached with 0.25% trypsin-0.02% EDTA at 37_and then subcultured to establish secondary cultures. Cultures were maintained for no more than four passages. They were identified as smooth muscle cells by the typical hill-and-valley appearance, and cellular homogeneity was further confirmed by the presence of smooth muscle specific _-myosin and _-actin immunoreactivity. Indirect immunofluorescence staining for a variety of antigens was carried out by first plating the cells on chamber slides, fixing the cells in 3.7% formaldehyde-phosphate-buffered saline for 10 min, and permeabilizing the cells with phosphate-buffered saline and 0.1% Triton X-100. Cells were then stained with either a mouse monoclonal antibody directed against the amino-terminal 10 amino acids of _-smooth muscle actin or _-myosin (Roche Diagnostics, Indianapolis, Ind.). All cells were stained with fluorescein-labeled goat anti-mouse IgG antibody (Roche Diagnostics).
Measurement of cAMP and cGMP: Intracellular concentrations of cAMP and cGMP in TSMCs were measured as in our previous reports (Wu B N, Lin R J, Lin C Y, Shen K P, Chiang L C, and Chen I J (2001) A xanthine-based KMUP-1 with cyclic GMP enhancing and K^+ channels opening activities in rat aortic smooth muscle. Br J Pharmacol 134:265-274; Lin R J, Wu B N, Lo Y C, Shen K P, Lin Y T, Huang C H, and Chen I J (2002) KMUP-1 relaxes rabbit corpus cavernosum smooth muscle in vitro and in vivo: involvement of cyclic GMP and K(+) channels, Br J Pharmacol 135:1159-1166). In brief, cells were finally grown in 24-well plates (10^5 cells/well). At confluence, monolayer cells were washed with phosphate-buffered saline and then incubated with KMUP-3 (0.01-100 _M) for 20 min at 37_ in medium. […] The reaction was terminated by replacement of medium with 1 ml of ice-cold 1 N hydrochloric acid. Cells suspensions were sonicated and then centrifuged at 2500 g for 15 min at 4_. Then, the supernatants were lyophilized and the cAMP and cGMP of each sample were determined using commercially available radioimmunoassay kits (GE Healthcare, Little Chalfont, Buckinghamshire, UK).

With `Cn1c(=O)c2c(ncn2CCN2CCN(c3ccc([N+](=O)[O-])cc3)CC2)n(C)c1=O` [KMUP-3] as the compound, how does the “PDE5 Inhibition” value [1] read?
The value was 48 ± 1.9 %.

And the “relaxation response after epithelium denudation (FIG. 3(A))” value ([2]; 10, 30, 100 _M, EP− versus EP+)?
The value was “significant decrease in the relaxation response”.

And the “relaxation, concentration response” value ([2]; 10, 30, 100 _M, carbachol- or high-K+-contracted EP+ TSM, also epithelium-denuded)?
Its value is “concentration-dependent relaxation”.

What about the “relaxation of TSM strips” value ([2]; 100 _M, carbachol (1 _M)-precontracted) of the same compound?
The value was “up to 130%”.

What about the “relaxation in epithelium-intact trachea (FIG. 3(B))” value ([2]; 100 _M, carbachol (1 _M)-precontracted, EP+) of the same compound?
Its value is “cause relaxations”.

What about the “relaxation in presence of ODQ (1 _M), L-NAME (100 _M) or SQ 22536 (100 _M) (FIG. 5)” value ([2]; 30 min pretreatment, EP+ TSM) of the same compound?
The value was “attenuated”.

And the “relaxation against carbachol-induced contractions in presence of K+ channel blockers (FIGS. 4(A)-4(E))” value ([2]; pretreatment with TEA, glibenclamide, 4-AP, apamin or ChTX, EP+)?
Its value is “inhibited”.

And the cAMP level ([3]; 0.01 _M, 20 min, basal 62.6±6.4)?
The cAMP level was 80.2±2.5 pmol/mg protein.

And the cAMP level ([3]; 0.1 _M, 20 min, basal 62.6±6.4)?
The cAMP level was 91.3±3.4 pmol/mg protein.

And the cAMP level ([3]; 1 _M, 20 min, basal 62.6±6.4)?
Its cAMP level is 97.9±2.5 pmol/mg protein.

What about the cAMP level ([3]; 10 _M, 20 min, basal 62.6±6.4) of the same compound?
The cAMP level was 110.7±4.5 pmol/mg protein.

And the “cAMP level in presence of SQ 22536” value ([3]; 100 _M compound plus SQ 22536 (100 _M) pretreatment)?
Its value is 74.51 ± 3.18 pmol/mg protein.

And the “cAMP accumulation versus vehicle (FIG. 6)” value ([3]; 100 _M, 20 min)?
The value was “significant elevations”.

And the cAMP level ([3]; 100 _M, 20 min, basal/vehicle 62.6±6.4)?
The cAMP level was 127.5±4.8 pmol/mg protein and 128.72 ± 4.57 pmol/mg protein.
